Patent US20240092758A1, “IMIDAZOLO INDAZOLE COMPOUNDS AS JAK INHIBITORS” (Theravance Biopharma R&D IP, LLC, priority 2021, published 2024)

Legend:
[1] = biological target: JAK1 (Homo sapiens (Human), UniProt P23458); experiment: Biochemical JAK kinase assay (LanthaScreen), JAK1; details: for Ki: read-out: JAK1 pKi (converted)
Protocol: (§1) A panel of four LanthaScreen JAK biochemical assays (JAK1, 2, 3 and Tyk2) were carried in a common kinase reaction buffer (50 mM HEPES, pH 7.5, 0.01% Brij-35, 10 mM MgCl2, and 1 mM EGTA). Recombinant GST-tagged JAK enzymes and a GFP-tagged STAT1 peptide substrate were obtained from Life Technologies.
(§2) Serially diluted compounds were pre-incubated with each of the four JAK enzymes and the substrate in white 384-well microplates (Corning) at ambient temperature for 1 h. ATP was subsequently added to initiate the kinase reactions in 10 μL total volume, with 1% DMSO. The final enzyme concentrations for JAK1, 2, 3 and Tyk2 are 4.2 nM, 0.1 nM, 1 nM, and 0.25 nM respectively; the corresponding Km ATP concentrations used are 25 μM, 3 μM, 1.6 μM, and 10 μM; while the substrate concentration is 200 nM for all four assays. Kinase reactions were allowed to proceed for 1 hour at ambient temperature before a 10 μL preparation of EDTA (10 mM final concentration) and Tb-anti-pSTAT1 (pTyr701) antibody (Life Technologies, 2 nM final concentration) in TR-FRET dilution buffer (Life Technologies) was added. The plates were allowed to incubate at ambient temperature for 1 h before being read on the EnVision reader (Perkin Elmer). Emission ratio signals (520 nm/495 nm) were recorded and utilized to calculate the percent inhibition values based on DMSO and background controls.
(§3) For dose-response analysis, percent inhibition data were plotted vs. compound concentrations, and IC50 values were determined from a 4-parameter robust fit model with the Prism software (GraphPad Software). Results were expressed as pIC50 (negative logarithm of IC50) and subsequently converted to pKi (negative logarithm of dissociation constant, Ki) using the Cheng-Prusoff equation.
(§4) Test compounds having a lower Ki value or higher pKi value in the four JAK assays show greater inhibition of JAK activity.

[2] = biological target: JAK2 (Homo sapiens (Human), UniProt O60674); experiment: Biochemical JAK kinase assay (LanthaScreen), JAK2; details: for Ki: read-out: JAK2 pKi (converted)
Protocol: as §1, §2, §3, §4

[3] = test system: IL-13 induced STAT6 phosphorylation in BEAS-2B human lung epithelial cells; experiment: Cellular JAKI potency assay (BEAS-2B); format: cell-based; details: Homo sapiens, BEAS-2B, BEAS-2B cells, read-out: BEAS2B pIC50 (converted)
Protocol: The JAKI cellular potency assay was carried out by measuring inhibition of interleukin-13 (IL-13, R&D Systems) induced STAT6 phosphorylation in BEAS-2B human lung epithelial cells (ATCC). BEAS-2B cells were grown at 37° C. in a 5% CO2 humidified incubator in 50% DMEM/50% F-12 medium (Life Technologies) supplemented with 10% FBS (Hyclone), 100 U/mL penicillin, 100 μg/mL streptomycin (Life Technologies), and 2 mM GlutaMAX (Life Technologies). On day 1 of the assay, cells were seeded at a 7,500 cells/well density in white poly-D-lysine-coated 384-well plates (Corning) with 25 μL medium and were allowed to adhere overnight in the incubator. On day 2 of the assay, the medium was removed and replaced with 12 μL of assay buffer (Hank's Balanced Salt Solution/HBSS, 25 mM HEPES, and 1 mg/ml bovine serum albumin/BSA) containing dose-responses of test compounds. Compounds were serially diluted in DMSO and then diluted another 1000-fold in media to bring the final DMSO concentration to 0.1%. Cells were incubated with test compounds at 37° C. for 1 h and followed by the addition of 12 μl of pre-warmed IL-13 (80 ng/mL in assay buffer) for stimulation. After incubating at 37° C. for 30 min, the assay buffer (containing compound and IL-13) was removed, and 10 μL of cell lysis buffer (25 mM HEPES, 0.1% SDS, 1% NP-40, 5 mM MgCl2, 1.3 mM EDTA, 1 mM EGTA, supplemented with Complete Ultra mini protease inhibitors and PhosSTOP from Roche Diagnostics). The plates were shaken at ambient temperature for 30 min before the addition of detection reagents. Levels of pSTAT6 were measured using the AlphaLISA SureFire Ultra pSTAT6 (Tyr641) assay kit from PerkinElmer. For dose-response analysis, percent inhibition data were plotted vs. compound concentrations, and IC50 values were determined from a 4-parameter robust fit model with the Graphpad Prism software. Results are expressed as the negative logarithm of the IC50 value, pIC50.
Test compounds having a lower IC50 value or higher pIC50 value in this assay show greater inhibition of IL-13 induced STAT6 phosphorylation.

Chain of JAK2 (O60674 whole entry): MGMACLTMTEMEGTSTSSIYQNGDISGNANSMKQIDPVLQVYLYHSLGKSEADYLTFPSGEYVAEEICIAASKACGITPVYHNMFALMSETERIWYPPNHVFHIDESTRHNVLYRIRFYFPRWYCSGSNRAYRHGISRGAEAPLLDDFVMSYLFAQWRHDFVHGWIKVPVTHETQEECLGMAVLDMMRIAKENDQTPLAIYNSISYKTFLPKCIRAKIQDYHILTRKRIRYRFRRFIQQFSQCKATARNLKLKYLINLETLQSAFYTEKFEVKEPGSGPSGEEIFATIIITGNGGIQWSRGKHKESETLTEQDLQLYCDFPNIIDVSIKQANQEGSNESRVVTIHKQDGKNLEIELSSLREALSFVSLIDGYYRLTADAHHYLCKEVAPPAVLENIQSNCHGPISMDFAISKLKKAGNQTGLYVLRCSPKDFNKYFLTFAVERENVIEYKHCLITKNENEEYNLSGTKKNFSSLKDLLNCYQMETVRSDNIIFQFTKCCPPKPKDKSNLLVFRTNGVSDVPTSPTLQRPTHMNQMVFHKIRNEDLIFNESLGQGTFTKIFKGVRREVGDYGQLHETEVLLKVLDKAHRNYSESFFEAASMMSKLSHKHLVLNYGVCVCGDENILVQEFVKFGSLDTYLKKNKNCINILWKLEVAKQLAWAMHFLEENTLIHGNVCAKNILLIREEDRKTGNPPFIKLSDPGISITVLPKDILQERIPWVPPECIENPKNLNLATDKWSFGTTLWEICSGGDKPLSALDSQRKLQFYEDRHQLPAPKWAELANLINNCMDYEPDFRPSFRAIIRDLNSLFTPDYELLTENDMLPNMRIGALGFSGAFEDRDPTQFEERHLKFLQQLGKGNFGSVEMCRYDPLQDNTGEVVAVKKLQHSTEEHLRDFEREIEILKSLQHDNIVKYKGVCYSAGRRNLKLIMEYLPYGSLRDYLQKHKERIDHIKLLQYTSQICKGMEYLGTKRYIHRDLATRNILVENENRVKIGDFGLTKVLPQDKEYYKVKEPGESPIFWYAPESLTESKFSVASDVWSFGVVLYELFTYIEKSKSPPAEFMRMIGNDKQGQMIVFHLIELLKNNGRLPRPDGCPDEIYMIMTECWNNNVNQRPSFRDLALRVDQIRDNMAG
Chain of JAK1 (P23458 whole entry): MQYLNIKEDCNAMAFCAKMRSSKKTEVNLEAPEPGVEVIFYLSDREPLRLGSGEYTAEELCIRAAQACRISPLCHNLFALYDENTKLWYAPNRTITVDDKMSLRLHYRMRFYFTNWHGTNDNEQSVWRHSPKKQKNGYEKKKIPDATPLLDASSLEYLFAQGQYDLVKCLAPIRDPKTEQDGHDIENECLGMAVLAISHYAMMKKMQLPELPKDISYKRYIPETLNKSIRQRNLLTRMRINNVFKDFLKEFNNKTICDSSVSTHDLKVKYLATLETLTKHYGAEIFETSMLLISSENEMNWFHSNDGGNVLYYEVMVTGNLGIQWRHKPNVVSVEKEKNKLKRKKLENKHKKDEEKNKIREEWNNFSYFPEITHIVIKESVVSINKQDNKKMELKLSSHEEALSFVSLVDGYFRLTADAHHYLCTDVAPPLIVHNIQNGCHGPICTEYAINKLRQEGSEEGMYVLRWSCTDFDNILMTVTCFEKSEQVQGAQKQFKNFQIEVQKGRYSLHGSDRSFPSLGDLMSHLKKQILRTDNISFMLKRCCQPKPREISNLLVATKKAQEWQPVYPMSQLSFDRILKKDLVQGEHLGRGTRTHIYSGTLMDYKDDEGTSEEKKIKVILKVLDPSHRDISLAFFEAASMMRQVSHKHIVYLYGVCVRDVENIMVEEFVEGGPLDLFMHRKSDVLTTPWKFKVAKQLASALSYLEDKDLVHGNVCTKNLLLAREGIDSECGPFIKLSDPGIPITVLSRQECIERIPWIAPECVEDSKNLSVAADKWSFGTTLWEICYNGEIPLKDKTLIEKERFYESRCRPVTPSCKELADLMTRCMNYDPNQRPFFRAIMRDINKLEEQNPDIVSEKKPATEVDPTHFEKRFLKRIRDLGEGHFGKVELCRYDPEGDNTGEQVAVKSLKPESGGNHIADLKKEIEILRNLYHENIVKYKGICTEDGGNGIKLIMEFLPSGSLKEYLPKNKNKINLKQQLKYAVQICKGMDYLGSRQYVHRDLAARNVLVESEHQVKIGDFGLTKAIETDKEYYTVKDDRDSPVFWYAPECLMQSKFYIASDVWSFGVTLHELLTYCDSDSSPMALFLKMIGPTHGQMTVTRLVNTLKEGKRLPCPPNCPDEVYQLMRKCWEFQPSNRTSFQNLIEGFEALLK

Row | SMILES | Ki [1] | JAK2 pKi [2] | IC50 [3] | JAK1 pKi [1] | Ki [2]
1 | CCc1cc(O)ccc1-c1ccc2c(-c3nc(C4=CCN(CC(=O)NC)C4)c[nH]3)n[nH]c2c1 [Example 93] | 0.1 to 1 nM | A (A represents a pKi value ≥10 (Ki≤0.1 nM)) | 3.16 to 10 nM | – | –
2 | CCc1cc(O)ccc1-c1ccc2c(-c3nc(C4=CCN(CCC(=O)NC)C4)c[nH]3)n[nH]c2c1 [Example 95] | – | A (A represents a pKi value ≥10 (Ki≤0.1 nM)) | 10 to 31.6 nM | A (A represents a pKi value ≥10 (Ki≤0.1 nM)) | –
3 | CCc1cc(O)ccc1-c1ccc2c(-c3nc(C4=CCN(CCS(=O)(=O)NC)C4)c[nH]3)n[nH]c2c1 [Example 96] | 0.1 to 1 nM | A (A represents a pKi value ≥10 (Ki≤0.1 nM)) | 10 to 31.6 nM | – | –
4 | CCc1cc(O)ccc1-c1ccc2c(-c3nc(C4=CCN(CC(=O)NC)C4)c[nH]3)n[nH]c2c1F [Example 97] | 0.1 to 1 nM | A (A represents a pKi value ≥10 (Ki≤0.1 nM)) | 3.16 to 10 nM | – | –
5 | CCc1cc(O)ccc1-c1ccc2c(-c3nc(C4=CCN(C5CCNC5=O)C4)c[nH]3)n[nH]c2c1F (stereo not drawn) [Example 98] | 0.1 to 1 nM | A (A represents a pKi value ≥10 (Ki≤0.1 nM)) | 31.6 to 100 nM | – | –
6 | CCc1cc(O)ccc1-c1ccc2c(-c3nc(C4=CCN(CCNS(C)(=O)=O)CC4)c[nH]3)n[nH]c2c1 [Example 99] | – | A (A represents a pKi value ≥10 (Ki≤0.1 nM)) | 10 to 31.6 nM | A (A represents a pKi value ≥10 (Ki≤0.1 nM)) | –
7 | CCc1cc(O)ccc1-c1ccc2c(-c3nc(C4=CCN(CCNC(C)=O)CC4)c[nH]3)n[nH]c2c1 [Example 100] | – | A (A represents a pKi value ≥10 (Ki≤0.1 nM)) | 3.16 to 10 nM | A (A represents a pKi value ≥10 (Ki≤0.1 nM)) | –
8 | CCc1cc(O)ccc1-c1ccc2c(-c3nc(C4=CCN(CCNS(=O)(=O)C(C)C)CC4)c[nH]3)n[nH]c2c1 [Example 101] | 0.1 to 1 nM | A (A represents a pKi value ≥10 (Ki≤0.1 nM)) | 10 to 31.6 nM | – | –
9 | CCc1cc(O)ccc1-c1ccc2c(-c3nc(C4=CCN(CCNC(=O)C(C)C)CC4)c[nH]3)n[nH]c2c1 [Example 102] | – | A (A represents a pKi value ≥10 (Ki≤0.1 nM)) | 3.16 to 10 nM | A (A represents a pKi value ≥10 (Ki≤0.1 nM)) | –
10 | CCc1cc(O)ccc1-c1ccc2c(-c3nc(C4=CCN(CCCNS(C)(=O)=O)CC4)c[nH]3)n[nH]c2c1 [Example 103] | – | A (A represents a pKi value ≥10 (Ki≤0.1 nM)) | 10 to 31.6 nM | A (A represents a pKi value ≥10 (Ki≤0.1 nM)) | –
11 | CCc1cc(O)ccc1-c1ccc2c(-c3nc(C4=CCN(CCCNC(C)=O)CC4)c[nH]3)n[nH]c2c1 [Example 104] | – | A (A represents a pKi value ≥10 (Ki≤0.1 nM)) | 3.16 to 10 nM | A (A represents a pKi value ≥10 (Ki≤0.1 nM)) | –
12 | CCc1cc(O)ccc1-c1ccc2c(-c3nc(C4=CCN(CCCNS(=O)(=O)C(C)C)CC4)c[nH]3)n[nH]c2c1 [Example 105] | – | A (A represents a pKi value ≥10 (Ki≤0.1 nM)) | 10 to 31.6 nM | A (A represents a pKi value ≥10 (Ki≤0.1 nM)) | –
13 | CCc1cc(O)ccc1-c1ccc2c(-c3nc(C4=CCN(CCNC(C)=O)CC4)c[nH]3)n[nH]c2c1F [Example 107] | – | A (A represents a pKi value ≥10 (Ki≤0.1 nM)) | 10 to 31.6 nM | A (A represents a pKi value ≥10 (Ki≤0.1 nM)) | –
14 | CCc1cc(O)ccc1-c1ccc2c(-c3nc(C4=CCCN(CCNS(C)(=O)=O)C4)c[nH]3)n[nH]c2c1 [Example 108] | 0.1 to 1 nM | A (A represents a pKi value ≥10 (Ki≤0.1 nM)) | 10 to 31.6 nM | – | –
15 | CCc1cc(O)ccc1-c1ccc2c(-c3nc(C4=CCCN(CCNC(C)=O)C4)c[nH]3)n[nH]c2c1 [Example 109] | 0.1 to 1 nM | – | 10 to 31.6 nM | – | 0.1 to 1 nM
16 | CCc1cc(O)ccc1-c1ccc2c(-c3nc(C4=CCCN(CCNC(=O)C(C)C)C4)c[nH]3)n[nH]c2c1 [Example 110] | 0.1 to 1 nM | – | 10 to 31.6 nM | – | 0.1 to 1 nM
17 | CCc1cc(O)ccc1-c1ccc2c(-c3nc(C4=CCCN(CCNS(C)(=O)=O)C4)c[nH]3)n[nH]c2c1F [Example 111] | 0.1 to 1 nM | – | 10 to 31.6 nM | – | 0.1 to 1 nM
18 | CCc1cc(O)ccc1-c1ccc2c(-c3nc(C4=CCCN(CCNC(C)=O)C4)c[nH]3)n[nH]c2c1F [Example 112] | 0.1 to 1 nM | – | 10 to 31.6 nM | – | 0.1 to 1 nM
19 | CCc1cc(O)ccc1-c1ccc2c(-c3nc(C4=CCN(CCNS(C)(=O)=O)C4)c[nH]3)n[nH]c2c1 [Example 113] | 0.1 to 1 nM | A (A represents a pKi value ≥10 (Ki≤0.1 nM)) | 10 to 31.6 nM | – | –
20 | CCc1cc(O)ccc1-c1ccc2c(-c3nc(C4=CCN(CCNC(C)=O)C4)c[nH]3)n[nH]c2c1 [Example 114] | – | A (A represents a pKi value ≥10 (Ki≤0.1 nM)) | 3.16 to 10 nM | A (A represents a pKi value ≥10 (Ki≤0.1 nM)) | –
21 | CCc1cc(O)ccc1-c1ccc2c(-c3nc(C4=CCN(CCNS(C)(=O)=O)C4)c[nH]3)n[nH]c2c1F [Example 115] | 0.1 to 1 nM | A (A represents a pKi value ≥10 (Ki≤0.1 nM)) | 10 to 31.6 nM | – | –
22 | CCc1cc(O)ccc1-c1ccc2c(-c3nc(C4=CCN(CCNC(C)=O)C4)c[nH]3)n[nH]c2c1F [Example 116] | 0.1 to 1 nM | A (A represents a pKi value ≥10 (Ki≤0.1 nM)) | 10 to 31.6 nM | – | –
23 | CCc1cc(O)ccc1-c1ccc2c(-c3nc(C4=CCN(CCCNC(=O)C(C)C)CC4)c[nH]3)n[nH]c2c1 [Example 117] | – | A (A represents a pKi value ≥10 (Ki≤0.1 nM)) | 3.16 to 10 nM | A (A represents a pKi value ≥10 (Ki≤0.1 nM)) | –
24 | CCc1cc(O)ccc1-c1ccc2c(-c3nc(C4=CCN(CCN5CCNC5=O)CC4)c[nH]3)n[nH]c2c1 [Example 118] | – | A (A represents a pKi value ≥10 (Ki≤0.1 nM)) | 31.6 to 100 nM | A (A represents a pKi value ≥10 (Ki≤0.1 nM)) | –
25 | CCc1cc(O)ccc1-c1ccc2c(-c3nc(C4=CCN(CCN5CCCC5=O)CC4)c[nH]3)n[nH]c2c1F [Example 119] | 0.1 to 1 nM | – | 10 to 31.6 nM | – | 0.1 to 1 nM
26 | CCc1cc(O)ccc1-c1ccc2c(-c3nc(C4=CCN(CCN5CCNC5=O)CC4)c[nH]3)n[nH]c2c1F [Example 120] | 0.1 to 1 nM | – | 10 to 31.6 nM | – | 0.1 to 1 nM
27 | CCc1cc(O)ccc1-c1ccc2c(-c3nc(C4=CCN(C5CCC(O)CC5)CC4)c[nH]3)n[nH]c2c1F (stereo not drawn) [Example 121] | 0.1 to 1 nM | A (A represents a pKi value ≥10 (Ki≤0.1 nM)) | 10 to 31.6 nM | – | –
28 | CCc1cc(O)ccc1-c1ccc2c(-c3nc(C4=CCN(CC5CNC(=O)O5)CC4)c[nH]3)n[nH]c2c1F (stereo not drawn) [Example 123] | 0.1 to 1 nM | – | 31.6 to 100 nM | – | 0.1 to 1 nM
29 | CCc1cc(O)ccc1-c1ccc2c(-c3nc(C4=CCCN(CCN5CCNC5=O)C4)c[nH]3)n[nH]c2c1 [Example 124] | – | A (A represents a pKi value ≥10 (Ki≤0.1 nM)) | 3.16 to 10 nM | A (A represents a pKi value ≥10 (Ki≤0.1 nM)) | –
30 | CCc1cc(O)ccc1-c1ccc2c(-c3nc(C4=CCCN(CCN5CCNC5=O)C4)c[nH]3)n[nH]c2c1F [Example 125] | 0.1 to 1 nM | – | 31.6 to 100 nM | – | 0.1 to 1 nM
